Assays:
Assay type in all cases: functional
[1] = tested on: A549; assay: Cytotoxicity against human A549 cells; conditions: read-out: ED50 (the source's name)
[2] = tested on: UMUC3; assay: Cytotoxicity against human UM-UC-3 cells; conditions: read-out: ED50 (the source's name)
[3] = tested on: HT-29; assay: Cytotoxicity against human HT-29 cells; conditions: read-out: ED50 (the source's name)
[4] = tested on: PC-3; assay: Cytotoxicity against human PC3 cells; conditions: read-out: ED50 (the source's name)
[5] = tested on: MIA PaCa-2; assay: Cytotoxicity against human MIAPaCa2 cells; conditions: read-out: ED50 (the source's name)
[6] = Cytotoxicity against human A4982LM cells; conditions: read-out: ED50 (the source's name)
[7] = Cytotoxicity against human MDA231 cells; conditions: MDA-MB-231, read-out: ED50 (the source's name)
[8] = Cytotoxicity against human FDIGROV cells; conditions: read-out: ED50 (the source's name)

| Compound | EC50 [1] | EC50 [2] | EC50 [3] | EC50 [4] | EC50 [5] | EC50 [6] | EC50 [7] | EC50 [8] |
| --- | --- | --- | --- | --- | --- | --- | --- | --- |
| Cc1c(C)[n+](Cc2ccccc2)c(C)n1Cc1ccccc1.[Cl-] [LEPIDILINE B] | > 10 µg/mL | 6.47 µg/mL | > 10 µg/mL | > 10 µg/mL | 1.38 µg/mL | > 10 µg/mL | 1.66 µg/mL | 5.26 µg/mL |
| Cc1c(C)[n+](Cc2ccccc2)cn1Cc1ccccc1.[Cl-] [LEPIDILINE A] | > 10 µg/mL | > 10 µg/mL | > 10 µg/mL | > 10 µg/mL | > 10 µg/mL | > 10 µg/mL | > 10 µg/mL | 7.39 µg/mL |
